Experimental data: patent publication US20190127366A1 (LifeSci Pharmaceuticals, Inc., priority 2015, published 2019)

How the values were obtained:
[1] = test system: alternative pathway (AP) hemolytic activity; experiment: AP hemolysis inhibition assay; format: cell-based; conditions: Erythrocyte, 1 h; Normal Human Serum, chicken or rabbit erythrocytes, 60 min at 37° C., OD 414 nm
Experimental: The ability of the compounds disclosed herein to inhibit alternative pathway (AP) hemolytic activity was determined. Red blood cells (RBC), chicken or rabbit erythrocyctes (SbjBio), were washed three time using assay buffer containing 0.1% gelatin, 5 mM Veronal, 145 mM NaCl, 0.025% NaN3, 10 mM Mg-EGTA pH 7.3. In 100 μL reaction system, 1300 to 1500 ng/μL final concentration of Normal Human Serum (CompTech) was incubated with compound for 15 min at 37° C. Then 2×10^6 cells/well of chicken or rabbit erythrocytes in assay buffer were added and incubated for an additional 60 min at 37° C. Positive control (100% lysis) consists of serum and RBC, and negative control (0% lysis) consists of assay buffer and RBC only. Samples were centrifuged at 2000 g for 5 min, and supernatants collected. Optical density of the supernatant is monitored at 414 nm using Synergy 2 (BioTek). Percentage lysis in each sample is calculated relative to positive control (100% lysis).
Table 3 discloses the inhibitory activity of the compounds provided herein in the hemolysis assay.

[2] = target: T1, human complement factor D (Homo sapiens, UniProt P00746); experiment: In vitro enzyme inhibition (Z-Lys-SBzl/DTNB absorbance assay); format: biochemical; conditions: Complement Factor D (R&D Systems), substrate Z-Lys-SBzl, A405 nm; read-out: CFD IC50
T1 construct: purchased R&D Systems 1824-SE
Outline: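 Factor D (6.25 ng/μL before addition) preincubated 5 min RT with compound (8 points from 50 μM, 6-fold, 0.5% DMSO final) in 50 mM Tris/HCl pH 7.5, 1 M NaCl, then Z-Lys-SBzl/DTNB added (200 μM each before addition). A405 read kinetically every 30 s for 60 min; IC50 from variable-slope fit, controls with and without enzyme.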

T1 sequence (P00746 26-253): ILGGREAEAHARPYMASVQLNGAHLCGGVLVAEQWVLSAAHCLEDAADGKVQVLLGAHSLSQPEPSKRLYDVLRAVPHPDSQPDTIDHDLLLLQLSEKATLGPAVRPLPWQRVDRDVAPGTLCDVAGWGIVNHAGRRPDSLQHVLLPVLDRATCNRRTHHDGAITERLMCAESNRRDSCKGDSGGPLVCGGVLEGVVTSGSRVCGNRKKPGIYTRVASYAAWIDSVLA

Compound | EC50 [1] | IC50 [2]
NC(=O)n1nc(CC(=O)N2CC[C@H]2C(=O)NCc2cccc(Cl)c2F)c2ccccc21 [Example 188, (S)-3-(2-(2-((3-chloro-2-fluorobenzyl)carbamoyl)azetidin-l-yl)-2-oxoethyl)-1H-indazole-1-carboxamide] | 100 to 1000 nM | < 100 nM
NC(=O)c1nn(CC(=O)N2CC[C@H]2C(=O)NCc2cccc(Cl)c2F)c2cnccc12 [Example 189, (S)-1-(2-(2-((3-chloro-2-fluorobenzyl)carbamoyl)azetidin-1-yl)-2-oxoethyl)-1H-pyrazolo[3,4-c]pyridine-3-carboxamide] | 100 to 1000 nM | < 100 nM
CC(=O)c1nn(CC(=O)N2CC[C@H]2C(=O)NCc2cccc(Cl)c2F)c2ccccc12 [Example 190, (S)-1-(2-(3-acetyl-1H-indazol-1-yl)acetyl)-N-(3-chloro-2-fluorobenzyl)azetidine-2-carboxamide] | < 100 nM | < 100 nM
